Here are results for 1 compound from patent US20160354781A1, “MICROFLUIDIC PLATE FOR SAMPLE PROCESSING” (National Taiwan University, priority 2015, published 2016).

SMILES strings stand for the structures. Converted amounts (≈) assume the structure as drawn.

Test [1] concerns MDA-MB-231 cells. Kind of test: Anticancer drug screening in the Micro-Gap Plate (MGP), viability by tri-fluorescent staining. Format: cell-based. The note with it: Homo sapiens, 24 hour drug treatment, viability normalized against untreated cells, read-out: IC50 (concentration yielding a 50% decrease in normalized percentage cell viability). Here is the method: (§1) The anticancer drug screening of cell lines was conducted with MGP and on 96-well plates as control. Two typical breast cancer lines, MCF-7 (ATCC, HTB-22) and MDA-MB-231 (ATCC, HTB-26) were used. The reason to choose the two types of cancer cell lines was that MCF-7 stood for typical luminal type cancer cells while MDA-MB-231 stood for normal-like typically. By using the two cell lines in drug response assay on the microfluidic device, we could examine whether MGP was workable to both the two types of cancer cells since primary samples may have diversely cancer cell types. Anticancer drug screening using cell lines could confirm the feasibility of applying MGP to individualized chemosensitivity assay on primary patient samples. In addition, cell lines on MGP could help optimize the operation of drug response assay beforehand, which would reduce the difficulties when dealing with primary samples. Moreover, the method of viability assessment could be examined on MGP using cell lines since fluorescent images was one of most important factors to determine the viability of cancer cells after drug treatment. […]
Primary cells were suspended (16.7 cells/0.1 μL) in culture medium (the formula of culture medium is stated in the previous section). […] The volume of cell suspension in each unit was determined on the basis of the final density of cell suspension as stated in previous section. […]

Test [2] concerns MDA-MB-231 cells. Kind of test: Anticancer drug screening in 96-well plates (control), MTT assay. The note with it: Homo sapiens, 96-well control, 24 hour drug treatment, read-out: IC50 (concentration yielding a 50% decrease in normalized percentage cell viability). The class given is cell-based. Here is the method: as §1, with “samples.” for “samples. Moreover, the method of viability assessment could be examined on MGP using cell lines since fluorescent images was one of most important factors to determine the viability of cancer cells after drug treatment.”
Anticancer drug screening was also conducted using conventional 96-well plates as controls. […] The quantity of cells in single well was determined to coordinate the same cell-to-substrate ratio as in MGP (1000 cells/1.766 mm2). […] Finally, a plate reader (MQX 200, BioTek) was used to determine the absorbance of the DMSO at 570 nm, which was used to determine the number of living cells. […]
(Tetrazolium dyes change colour on reduction, which living cells bring about.)

For `CC(=O)O[C@@]12CO[C@@H]1C[C@H](O)[C@@]1(C)C(=O)[C@H](O)C3=C(C)[C@@H](OC(=O)[C@H](O)[C@@H](NC(=O)OC(C)(C)C)c4ccccc4)C[C@@](O)([C@@H](OC(=O)c4ccccc4)[C@H]21)C3(C)C` [docetaxel], the IC50 worked out at 23.4 µg/mL (≈ 29 µM) in test [1] and 25.4 µg/mL (≈ 31.4 µM) in test [2].
